One assay deals with Laodelphax striatellus. Put plainly: Insecticidal test on Laodelphax striatellus (rice seedling dip). It is filed as in vivo. Particulars: 192 h, rice seedlings dipped 30 seconds, 3rd-instar larvae, 8 days after inoculation, read-out: insecticidal efficacy (corrected mortality rate) activity level. The text has this: Insecticidal Test on Laodelphax striatellus
The oxime group-containing quinoline compounds represented by the general formula (1) of the present invention or salts thereof were separately dispersed in water and diluted to 500 ppm. Rice plant seedlings (variety: Nihonbare) were dipped in the agrochemical dispersions for 30 seconds. After air-dried, each seedling was put into a separate glass test tube and inoculated with ten 3rd-instar larvae of Laodelphax striatellus, and then the glass test tubes were capped with cotton plugs. At 8 days after the inoculation, the numbers of surviving larvae and dead larvae were counted, the corrected mortality rate was calculated according to the formula shown below, and the insecticidal efficacy was evaluated according to the criteria shown below. Corrected mortality rate (%)=100×(Survival rate in a non-treatment plot−Survival rate in a treatment plot)/Survival rate in a non-treatment plot [Math. 2] Criteria A: the corrected mortality rate is 100%. B: the corrected mortality rate is 90 to 99%. C: the corrected mortality rate is 80 to 89%. D: the corrected mortality rate is 50 to 79%.

In a further assay the test system is Plutella xylostella. The experiment in a line: Insecticidal test on Plutella xylostella (dip of Chinese cabbage seedlings with laid eggs). In kind it is in vivo. The settings on record: 144 h, seedlings with laid eggs dipped about 30 seconds, 25° C., 6 days after dip treatment, criteria of Test Example 2, read-out: insecticidal efficacy (corrected mortality rate) activity level. The text has this: Insecticidal Test on Plutella xylostella
Adults of Plutella xylostella were released onto Chinese cabbage seedlings and allowed to lay eggs thereon. At 2 days after the release of the adults, the Chinese cabbage seedlings with laid eggs were dipped for about 30 seconds in agrochemical dispersions diluted to 500 ppm, each of which contained a different kind of oxime group-containing quinoline compound represented by the general formula (1) of the present invention as an active ingredient. After air-dried, the seedlings were kept in a thermostatic chamber at 25° C. At 6 days after the dip treatment, the number of hatched larvae per plot was counted, the mortality rate was calculated according to the formula shown below, and the insecticidal efficacy was evaluated according to the criteria of Test Example 2. This test was conducted in triplicate using 10 adults of Plutella xylostella per plot. Corrected mortality rate (%)=100×(Number of hatched larvae in a non-treatment plot−Number of hatched larvae in a treatment plot)/Number of hatched larvae in a non-treatment plot [Math. 3]

Consider `CCS(=O)(=O)c1cc2cc(/C=N/O)ccc2nc1-c1nc2cc(C(F)(F)F)cnc2n1C` [Compound 1-1, (E)-3-(ethylsulfonyl)-2-(3-methyl-6-(trifluoromethyl)-3H-imidazo[4,5-b]pyridin-2-yl)quinoline-6-carbaldehyde oxime], for which the mortality at 500 ppm in the assay on Laodelphax striatellus and in the assay on Plutella xylostella was 100% in each case.
On to `CCS(=O)(=O)c1cc2cc(/C=N/OCC(F)(F)F)ccc2nc1-c1nc2cc(C(F)(F)F)cnc2n1C` [Compound 1-7, (E)-3-(ethylsulfonyl)-2-(3-methyl-6-(trifluoromethyl)-3H-imidazo[4,5-b]pyridin-2-yl)quinoline-6-carbaldehyde O-(2,2,2-trifluoroethyl)oxime], for which the mortality at 500 ppm in the assay on Laodelphax striatellus and with Plutella xylostella was 100% in each case.
Turning to `CCS(=O)(=O)c1cc2ccc(/C=N/OCSC)cc2nc1-c1nc2cc(C(F)(F)F)cnc2n1C` [Compound 2-19, 3-(ethylsulfonyl)-2-(3-methyl-6-(trifluoromethyl)-3H-imidazo[4,5-b]pyridin-2-yl)quinoline-7-carbaldehyde O-(methylthiomethyl)oxime], the mortality at 500 ppm in the assay on Laodelphax striatellus and in the assay on Plutella xylostella was 100% each time.
For the compound `CCS(=O)(=O)c1cc2ccc(/C=N/OC[S+](C)[O-])cc2nc1-c1nc2cc(C(F)(F)F)cnc2n1C` (centres unmarked) [Compound 2-24, 3-(ethylsulfonyl)-2-(3-methyl-6-(trifluoromethyl)-3H-imidazo[4,5-b]pyridin-2-yl)quinoline-7-carbaldehyde O-(methylsulfinylmethyl)oxime], the mortality at 500 ppm in the assay with Laodelphax striatellus and with Plutella xylostella was 100% each time.
Turning to `CCS(=O)(=O)c1cc2ccc(/C=N/OCS(C)(=O)=O)cc2nc1-c1nc2cc(C(F)(F)F)cnc2n1C` [Compound 2-25, 3-(ethylsulfonyl)-2-(3-methyl-6-(trifluoromethyl)-3H-imidazo[4,5-b]pyridin-2-yl)quinoline-7-carbaldehyde O-(methylsulfonylmethyl)oxime], the mortality at 500 ppm with Laodelphax striatellus and in the assay on Plutella xylostella was 100% throughout.
`CCS(=O)(=O)c1cc2cc(/C(C)=N/O)ccc2nc1-c1nc2cc(SC(F)(F)F)ccc2o1` [Compound 3-2, 1-(3-(ethylsulfonyl)-2-(5-(trifluoromethylthio)benzo[d]oxazol-2-yl)quinolin-6-yl)ethanone oxime]: the mortality at 500 ppm with Laodelphax striatellus and with Plutella xylostella was 100% in each case.
Turning to `CCS(=O)(=O)c1cc2cc(/C(C)=N/OCC(F)(F)F)ccc2nc1-c1nc2cc(SC(F)(F)F)ccc2o1` [Compound 3-8, 1-(3-(ethylsulfonyl)-2-(5-(trifluoromethylthio)benzo[d]oxazol-2-yl)quinolin-6-yl)ethanone O-(2,2,2-trifluoroethyl)oxime], the mortality at 500 ppm in the assay on Laodelphax striatellus and with Plutella xylostella was 100% each time.

The record behind these values is US10435411B2, “Oxime group-containing quinoline compound, N-oxide thereof or salt thereof, agricultural and horticultural insecticide comprising the compound, and method for using the insecticide” (Nihon Nohyaku Co., Ltd., priority 2016, dated 2019).
